Test results published in PubChem BioAssay (NCI).
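These data come from cells grown in 96-well plates and exposed to compound for 48 hours at five concentrations. GI50 = concentration required for 50% inhibition of growth. At the TGI there is no net growth.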

What was measured:
Assay in all cases: NCI anticancer screen, dose series, 48 h
[1] = system: MDA-MB-468 breast
[2] = system: NCI-H23 lung
[3] = system: T-47D breast
[4] = system: HCC-2998 colon
[5] = system: EKVX NSCLC
[6] = system: UACC-62 melanoma
[7] = system: A498 renal
[8] = system: M14 melanoma
[9] = system: 786-0 renal
[10] = system: SF-295 CNS
[11] = system: SR leukemia
[12] = system: A549 NSCLC
[13] = system: SNB-19 CNS
[14] = system: HT29 colon
[15] = system: COLO 205 colon
[16] = system: NCI-H460 lung
[17] = system: UACC-257 melanoma
[18] = system: HCT-15 colon
[19] = system: RPMI-8226 leukemia
[20] = system: CCRF-CEM leukemia
[21] = system: U251 CNS
[22] = system: HL-60(TB) leukemia
[23] = system: OVCAR-3 ovarian
[24] = system: HOP-92 NSCLC
[25] = system: TK-10 renal
[26] = system: DU-145 prostate
[27] = system: NCI-H226 lung
[28] = system: OVCAR-5 ovarian
[29] = system: SF-539 CNS
[30] = system: MALME-3M melanoma
[31] = system: OVCAR-4 ovarian
[32] = system: SNB-75 CNS
[33] = system: MCF7 breast
[34] = system: SK-MEL-28 melanoma
[35] = system: HS 578T breast
[36] = system: OVCAR-8 ovarian
[37] = system: NCI/ADR-RES ovarian
[38] = system: MDA-MB-231 breast
[39] = system: SK-MEL-5 melanoma
[40] = system: PC-3 prostate
[41] = system: BT-549 breast
[42] = system: RXF 393 renal
[43] = system: HOP-62 NSCLC
[44] = system: LOX IMVI melanoma
[45] = system: UO-31 renal
[46] = system: ACHN renal
[47] = system: SK-OV-3 ovarian
[48] = system: IGROV1 ovarian
[49] = system: SF-268 CNS
[50] = system: CAKI-1 renal
[51] = system: SK-MEL-2 melanoma
[52] = system: HCT-116 colon
[53] = system: SN12C renal
[54] = system: KM12 colon
[55] = system: MOLT-4 leukemia
[56] = system: SW-620 colon
[57] = system: K-562 leukemia
[58] = system: MDA-MB-435
[59] = system: NCI-H522 lung

C[C@@H](Nc1c(C#N)cnc2ccc(-c3cnc4[nH]ncc4c3)cc12)c1ccccc1
GI50 [1]: 1.16 µM | TGI [1]: 2.67 µM | GI50 [2]: 4.31 µM | TGI [2]: 22 µM | GI50 [3]: 2.88 µM | TGI [3]: 8.36 µM | GI50 [4]: 4.69 µM | TGI [4]: 26 µM | GI50 [5]: 0.827 µM | TGI [5]: 4.45 µM | GI50 [6]: 1.94 µM | TGI [6]: 5.86 µM | GI50 [7]: 2.55 µM | TGI [7]: 6.8 µM | GI50 [8]: 2.43 µM | TGI [8]: 19.1 µM | GI50 [9]: 2.74 µM | TGI [9]: 11.3 µM | GI50 [10]: 2.11 µM | TGI [10]: 10.5 µM | GI50 [11]: 2.23 µM | TGI [11]: 19.7 µM | GI50 [12]: 2.53 µM | TGI [12]: 10.9 µM | GI50 [13]: 2.48 µM | TGI [13]: 28 µM | GI50 [14]: 14.5 µM | TGI [14]: 35.2 µM | GI50 [15]: 16.3 µM | TGI [15]: 37 µM | GI50 [16]: 2.66 µM | TGI [16]: 13.2 µM | GI50 [17]: 3.24 µM | TGI [17]: 16.3 µM | GI50 [18]: 3.17 µM | TGI [18]: 16.4 µM | GI50 [19]: 2.04 µM | TGI [19]: 11.3 µM | GI50 [20]: 2.46 µM | TGI [20]: > 100 µM | GI50 [21]: 4.91 µM | TGI [21]: 22.7 µM | GI50 [22]: 1.74 µM | TGI [22]: 7.98 µM | GI50 [23]: 2.14 µM | TGI [23]: 11.9 µM | GI50 [24]: 1.08 µM | TGI [24]: 7.29 µM | GI50 [25]: 2.96 µM | TGI [25]: 8.36 µM | GI50 [26]: 2.76 µM | TGI [26]: 25.2 µM | GI50 [27]: 2.85 µM | TGI [27]: 14.3 µM | GI50 [28]: 3.89 µM | TGI [28]: 18.3 µM | GI50 [29]: 2.59 µM | TGI [29]: 12.2 µM | GI50 [30]: 1.16 µM | TGI [30]: 7.27 µM | GI50 [31]: 3.47 µM | TGI [31]: 18 µM | GI50 [32]: 1.1 µM | TGI [32]: 5.16 µM | GI50 [33]: 1.87 µM | TGI [33]: 7.81 µM | GI50 [34]: 2.06 µM | TGI [34]: 14.4 µM | GI50 [35]: 1.27 µM | TGI [35]: 5.37 µM | GI50 [36]: 2.33 µM | TGI [36]: 23.5 µM | GI50 [37]: 3.71 µM | TGI [37]: 34.8 µM | GI50 [38]: 2.38 µM | TGI [38]: 13.8 µM | GI50 [39]: 1.71 µM | TGI [39]: 5.96 µM | GI50 [40]: 2.58 µM | TGI [40]: > 100 µM | GI50 [41]: 0.353 µM | TGI [41]: 4.83 µM | GI50 [42]: 1.26 µM | TGI [42]: 3.55 µM | GI50 [43]: 3.03 µM | TGI [43]: 19 µM | GI50 [44]: 3.12 µM | TGI [44]: 16.7 µM | GI50 [45]: 0.468 µM | TGI [45]: 10.8 µM | GI50 [46]: 0.699 µM | TGI [46]: 11.3 µM | GI50 [47]: 2.16 µM | TGI [47]: 7.98 µM | GI50 [48]: 1.91 µM | TGI [48]: 4.07 µM | GI50 [49]: 3.56 µM | TGI [49]: 34 µM | GI50 [50]: 2.78 µM | TGI [50]: 10.9 µM | GI50 [51]: 3.23 µM | TGI [51]: 16 µM | GI50 [52]: 3.77 µM | TGI [52]: 16.1 µM | GI50 [53]: 1.57 µM | TGI [53]: 12.8 µM | GI50 [54]: 4.2 µM | TGI [54]: 21.5 µM | GI50 [55]: 1.61 µM | TGI [55]: 5.02 µM | GI50 [56]: 4.65 µM | TGI [56]: 23.2 µM | GI50 [57]: 4.67 µM | TGI [57]: > 100 µM | GI50 [58]: 3.5 µM | TGI [58]: 19.5 µM | GI50 [59]: 1.71 µM | TGI [59]: 11.6 µM
